# How the values were obtained:
# A2780 (ovarian) cells = experiment: Anti-proliferative activity, Cell-Titre luminescent viability assay; type: cell-based; settings: Homo sapiens, 72 h exposure, Cell-Titre luminescent reagent
# Procedure: (§1) The ability of compounds of the disclosure to inhibit the proliferation of cancer cells representative of non-small cell lung cancer and ovarian cancer (Table 1), and pancreatic cancer, colorectal cancer and prostate cancer (Table 2) was assessed. Briefly, a predetermined number of cells as calculated from cell growth assays for each of the cell lines employed were seeded into their respective culture medium (using ATCC culture parameters—http://www.atcc.org) and cultured for 24 h at 37° C. and 5% CO2 in 96-well culture plates. Once attached, each cell line was then exposed to various concentrations of each respective analogue (100, 30, 10, 3, 1 and 0.3 µM or 30, 10, 3, 1, 0.3 and 0.1 μM), cultured for a further 72 h and exposed to Cell-Titre luminescent reagent (100 μL/well) for a further 30 min. Luminescence was captured using an EnVision multilabel reader and the data for each analogue concentration compared against no treatment control. Cell viability was normalised to control (vehicle alone) and dose response curves, and half maximal effective concentration (EC50) values were determined using Graph Pad Prism 6 (nonlinear regression sigmoidal dose-response variable slope).
# A549 (NSCLC) cells = experiment: as above; type: cell-based; settings: Homo sapiens, 72 h exposure, Cell-Titre luminescent reagent
# Procedure: as §1
SMILES,IC50 (A2780 (ovarian) cells),IC50 (A549 (NSCLC) cells)
"Cc1ccc(NC(=O)C2CCN(S(=O)(=O)c3cc(C(N)=O)n(C)c3)CC2)cc1O [Compound 1, 1-((5-carbamoyl-1-methyl-1H-pyrrol-3-yl)sulfonyl)-N-(3-hydroxy-4-methylphenyl)piperidine-4-carboxamide]",> 100 µM,> 100 µM
"Cc1ccc(NC(=O)C2CCN(S(=O)(=O)c3ccc4c(c3)CCN4)CC2)cc1O [Compound 4, N-(3-hydroxy-4-methylphenyl)-1-(indolin-5-ylsulfonyl)piperidine-4-carboxamide]",> 100 µM,> 100 µM
"CCC(C)c1ccc(NC(=O)N2CCN(S(=O)(=O)c3cc(C(N)=O)n(C)c3)CC2)cc1 (stereo not shown) [Compound 9, N-(4-(sec-butyl)phenyl)-4-((5-carbamoyl-1-methyl-1H-pyrrol-3-yl)sulfonyl)piperazine-1-carboxamide]",> 100 µM,> 100 µM
"Cc1ccc(NC(=O)N2CCN(S(=O)(=O)c3cc(C(N)=O)n(C)c3)CC2)cc1O [Compound 10, 4-((5-carbamoyl-1-methyl-1H-pyrrol-3-yl)sulfonyl)-N-(3-hydroxy-4-methylphenyl)piperazine-1-carboxamide]",> 100 µM,> 100 µM
"CCC(C)c1ccc(NC(=O)N2CCN(S(=O)(=O)c3ccc4c(c3)CCN4)CC2)cc1 (stereo not shown) [Compound 12, N-(4-(sec-butyl)phenyl)-4-(indolin-5-ylsulfonyl)piperazine-1-carboxamide]",> 100 µM,> 100 µM
"Cc1ccc(NC(=O)N2CCN(S(=O)(=O)c3ccc4c(c3)CCN4)CC2)cc1O [Compound 13, N-(3-hydroxy-4-methylphenyl)-4-(indolin-5-ylsulfonyl)piperazine-1-carboxamide]",> 100 µM,> 100 µM
"Cc1ccc(NC(=O)c2ccn(S(=O)(=O)c3cc(C(N)=O)n(C)c3)c2)cc1O [Compound 19, 4-((3-((3-hydroxy-4-methylphenyl)carbamoyl)-1H-pyrrol-1-yl)sulfonyl)-1-methyl-1H-pyrrole-2-carboxamide]",≥ 100 µM,> 100 µM
"Cn1cc(S(=O)(=O)n2ccc(C(=O)Nc3ccc(C(F)(F)F)cc3)c2)cc1C(N)=O [Compound 20, 1-methyl-4-((3-((4-(trifluoromethyl)phenyl)carbamoyl)-1H-pyrrol-1-yl)sulfonyl)-1H-pyrrole-2-carboxamide]",24.7 µM,> 100 µM
"CCC(C)c1ccc(NC(=O)C2CCN(S(=O)(=O)c3cc(C(=O)N(C)C)n(C)c3)CC2)cc1 (stereo not shown) [Compound 27, N-(4-(sec-butyl)phenyl)-1-((5-(dimethylcarbamoyl)-1-methyl-1H-pyrrol-3-yl)sulfonyl)piperidine-4-carboxamide]",> 100 µM,> 100 µM
"Cn1cc(S(=O)(=O)N2CCC(C(=O)Nc3ccccc3)CC2)cc1C(N)=O [Compound 30, 1-((5-carbamoyl-1-methyl-1H-pyrrol-3-yl)sulfonyl)-N-phenylpiperidine-4-carboxamide]",> 100 µM,> 100 µM
"Cn1cc(S(=O)(=O)N2CCC(C(=O)NC3CCCCC3)CC2)cc1C(N)=O [Compound 31, 1-((5-carbamoyl-1-methyl-1H-pyrrol-3-yl)sulfonyl)-N-cyclohexylpiperidine-4-carboxamide]",> 100 µM,> 100 µM
"CNC(=O)C1CCN(S(=O)(=O)c2cc(C(N)=O)n(C)c2)CC1 [Compound 32, 1-((5-carbamoyl-1-methyl-1H-pyrrol-3-yl)sulfonyl)-N-methylpiperidine-4-carboxamide]",> 100 µM,> 100 µM
"CCC(C)c1ccc(NCC2CCN(S(=O)(=O)c3cc(C(N)=O)n(C)c3)CC2)cc1 (stereo not shown) [Compound 33, 4-((4-(((4-(sec-butyl)phenyl)amino)methyl)piperidin-1-yl)sulfonyl)-1-methyl-1H-pyrrole-2-carboxamide]",12.1 µM,> 100 µM
"CC(C)c1ccccc1NC(=O)c1ccn(S(=O)(=O)c2ccc3[nH]ccc3c2)c1 [Compound 39, 1-((1H-indol-5-yl)sulfonyl)-N-(2-isopropylphenyl)-1H-pyrrole-3-carboxamide]",> 30 µM,> 30 µM
